Here are results for 17 molecules from patent US9201062B2, “Predicting toxicity of a compound over a range of concentrations” (CELLOMICS, INC., priority 2011, dated 2015).

In data set [1] the test system is Reactive oxygen species (ROS) levels in cells. An excerpt:
Once imaging has been performed, automated image processing algorithms as are known in the art can be used in the imaging system to determine the measurements in the cell images.
The target i being evaluated was the normalized ROS response.
where μ is the mean of the normalized non-hepatotoxic compound values and σ is the standard deviation of the normalized non-hepatotoxic compound values.
As noted above, for ROS, the upper threshold may be all that is needed. […] The difficulty in compound toxicity measurement because of non-unidirectional response and/or because of incorrect EC50/IC50 calculation from a dose-response curve are avoided by establishing toxicity thresholds based on the negative controls and by flagging a compound as toxic only if its response goes beyond the determined thresholds at any concentration.
For each target, the minimal coefficient K of the deviation value from the mean of the non-hepatotoxic compound data can be calculated to include all the non-hepatotoxic compounds values between μ+K×σ and μ−K×σ values. These values are set respectively as the upper and lower toxicity thresholds for the target. As noted above, for each target both or only one of the thresholds can be used.
(§1) The normalized values from the hepatotoxic compounds (or compounds of interest) are compared with the threshold value determined above. The compound toxicity is determined by verifying whether the normalized value of the compound is outside the threshold value(s). […] Cell loss was determined to be toxic if the normalized value was less than the lower threshold value. Reactive oxygen species level was determined to be toxic if the respective normalized value was greater than the upper threshold value.

For data set [2] the following is noted: peak serum concentration of the drug; cited from earlier work.
The subject of another data set is rat primary hepatocytes. As to the kind of experiment: Multiparametric high-content hepatotoxicity prediction assay on rat primary hepatocytes (FIG. 9 decision table). The note with it: 24 hours drug incubation, over concentration range, targets: cell number, DNA content, GSH, ROS, mitochondrial membrane potential.
Description: After drug treatment, the hepatic cells are stained with specific fluorescent materials to detect different cellular targets or properties whose changes are associated with cell health, as is known in the art. For example, in the exemplary embodiments discussed herein, as well as in the test data shown, the following five cellular responses are simultaneously monitored: • 1. Cell number (i.e., cell loss, cell density) • 2. Nuclear DNA content • 3. Reduced glutathione (GSH) levels in cells • 4. Reactive oxygen species (ROS) levels in cells • 5. Mitochondrial membrane potential changes
Otherwise the cell contains a “−”.
This corresponds to the number of target cells corresponding to the compound that contain a “+”.
For maintenance of rat primary hepatocytes, Williams E medium can be used containing the following supplements: 15 mM HEPES, 1% ITS+, 4 mM Glutamax, 0.1 μM dexamethasone, 50 units/ml penicillin and 50 μg/ml streptomycin (Hepatocyte maintenance medium). […]
For each target, the minimal coefficient K of the deviation value from the mean of the non-hepatotoxic compound data can be calculated to include all the non-hepatotoxic compounds values between μ+K×σ and μ−K×σ values. […]
as §1
The images were analyzed, as discussed above, to produce the data shown on FIG. 9. […] After 24 hours of drug incubation, the hepatocytes were stained and imaged on a Thermo Scientific ToxInsight HCS reader. The data for each target were normalized and analyzed based on the threshold calculated from the non-hepatotoxic compounds in the manner discussed above. […]

In another data set the test system is HepG2 cells. As to the kind of experiment: High-content imaging of HepG2 cells stained for nuclei, glutathione, ROS and mitochondria (FIG. 11). It counts as cell-based. The following applies: 25 Cmax, 24 hrs. How it is done:
For routine culture of HepG2 cells, EMEM medium containing the following supplements can be used: 10% fetal bovine serum, 1 mM sodium pyruvate, 1× non-essential amino acids, 100 units/ml penicillin and 100 μg/ml streptomycin (EMEM complete medium).
Cells can be harvested by trypsinization, diluted into EMEM complete medium and cell density was determined. Cells are diluted to 2.0×10^5 cells/ml in EMEM complete medium. 100 μl of the cell suspension are added per well of the 96-well microplate to achieve 20,000 cells/well.
The cells were then stained with specific fluorescent dyes to detect each cellular target. Cell images were then obtained using the ArrayScan VTi Reader manufactured by Cellomics Inc., a subsidiary of Thermo Fisher Scientific Inc. Representative samples 230 of the cell images obtained during the assay are shown in FIG. 11. […] The images of the cells for the different targets look different for the two drugs; Troglitazone reduces the number of cells and mitochondrial membrane potential but […] reduced glutathione levels in HepG2 cells.

The structures appear in SMILES notation. Structures can show the parent of a compound that is named as a salt.

As to `CC(=O)Oc1ccccc1C(=O)O` [Aspirin], the “normalized ROS response relative to upper and lower toxicity thresholds” value in data set [1] is “between the upper and lower thresholds values”. For the same molecule, in data set [2], the “1 CMax” value was 0.995 µg/mL.
With `CN1CCC(=C2c3ccccc3C=Cc3ccccc32)CC1` [Cyproheptadine HCl], the “1 CMax” value in data set [2] was 30 µg/mL.
Take `O=C1CN(/N=C/c2ccc(-c3ccc([N+](=O)[O-])cc3)o2)C(O)=N1` [Dantrolene]: in data set [2], the “1 CMax” value is 1.24 µg/mL.
On to `N#CC(C#N)=NNc1ccc(OC(F)(F)F)cc1` [FCCP], for which the “number of targets flagged as being toxic (of five monitored targets)” value (shortened to “number of targets flagged as being toxic”) in the data set on rat primary hepatocytes is recorded as “Four”.
Regarding `CNCCC(Oc1ccc(C(F)(F)F)cc1)c1ccccc1` (stereo not drawn) [Fluoxetine], in data set [1], the “normalized ROS response relative to upper and lower toxicity thresholds” value was “between the upper and lower thresholds values”. Besides, the “number of targets flagged as being toxic” value in the data set with rat primary hepatocytes is listed as “none”. In addition, the “1 CMax” value in data set [2] is 0.015 µg/mL.
On to `Cc1ccc(C)c(OCCCC(C)(C)C(=O)O)c1` [Gemfibrozil], for which the “1 CMax” value in data set [2] was 46.4 µg/mL.
With `CCN(CC)CCNc1ccc(CO)c2sc3ccccc3c(=O)c12` [Hycanthone], the “normalized ROS response relative to upper and lower toxicity thresholds” value in data set [1] is reported as “flagged as being toxic”.
Turning to `Cc1cccc(Nc2ccccc2C(=O)O)c1C` [Mefenamic Acid], in data set [1], the “normalized ROS response relative to upper and lower toxicity thresholds” value is recorded as “flagged as being toxic”. For the same molecule, in data set [2], the “1 CMax” value is 6.5 µg/mL.
Regarding `COc1ccc2[nH]cc(CCNC(C)=O)c2c1` [Melatonin], the “normalized ROS response relative to upper and lower toxicity thresholds” value in data set [1] is “between the upper and lower thresholds values”. Also, the “1 CMax” value in data set [2] was 0.00557 µg/mL.
With `CCn1cc(C(=O)O)c(=O)c2ccc(C)nc21` [Nalidixic Acid], in data set [2], the “1 CMax” value was 30 µg/mL.
On to `CO[C@@H]1[C@@H](OC(N)=O)[C@@H](O)[C@H](Oc2ccc3c(O)c(NC(=O)c4ccc(O)c(CC=C(C)C)c4)c(=O)oc3c2C)OC1(C)C` [Novobiocin], for which the “normalized ROS response relative to upper and lower toxicity thresholds” value in data set [1] is listed as “flagged as being toxic”. Also, in the data set with rat primary hepatocytes, the “number of targets flagged as being toxic” value is given as “five”. Moreover, in data set [2], the “1 CMax” value was 62.5 µg/mL.
Regarding `CCCCC1C(=O)N(c2ccccc2)N(c2ccccc2)C1=O` [Phenylbutazone], in data set [2], the “1 CMax” value is 150 µg/mL.
Take `CN(CCOc1ccc(CC2SC(=O)NC2=O)cc1)c1ccccn1` (stereo not drawn) [Rosiglitazone]: the “1 CMax” value in data set [2] is 0.373 µg/mL.
`CN(C)[C@@H]1C(O)=C(C(N)=O)C(=O)[C@@]2(O)C(O)=C3C(=O)c4c(O)cccc4[C@@](C)(O)[C@H]3C[C@@H]12` [Tetracycline]: in data set [2], the “1 CMax” value is 9.317 µg/mL.
With `Clc1ccccc1CN1CCc2sccc2C1` [Ticlopidine], the “1 CMax” value in data set [2] was 2.13 µg/mL.
Regarding `O=c1n(CCCN2CCN(c3cccc(Cl)c3)CC2)nc2ccccn12` [Trazodone HCl], the “1 CMax” value in data set [2] was 1.88 µg/mL.
In the case of `Cc1c(C)c2c(c(C)c1O)CCC(C)(COc1ccc(CC3SC(=O)NC3=O)cc1)O2` (stereo not drawn) [Troglitazone], in data set [2], the “1 CMax” value was 2.82 µg/mL. For the same molecule, in the data set on HepG2 cells, the mitochondrial membrane potential entry is recorded as “reduces”, the number of cells entry is on record as “reduces” and the reduced glutathione levels result is reported as “increases”.
